Source: patent US20110003711A1 (CHROMOCELL CORPORATION, priority 2008, published 2011)
Structures can show the parent of a compound that is named as a salt. Where two headings read alike, the source gives them in different places.

Columns and labels:
[1] = target: T1, GABAA receptor α1β3γ2s (α1) (Homo sapiens, UniProt P14867+P18507+P28472); test: Membrane potential assay, CHO cell line expressing GABAA α1β3γ2s; type: cell-based
T1 construct: Human GABAA receptor alpha 1 subunit amino acid; Human GABAA receptor beta 3 variant 1 subunit amino acid; Human GABAA receptor gamma 2 variant 1 (short) subunit amino acid; expressed in transfected cells
T1 sequence (P14867 28-456): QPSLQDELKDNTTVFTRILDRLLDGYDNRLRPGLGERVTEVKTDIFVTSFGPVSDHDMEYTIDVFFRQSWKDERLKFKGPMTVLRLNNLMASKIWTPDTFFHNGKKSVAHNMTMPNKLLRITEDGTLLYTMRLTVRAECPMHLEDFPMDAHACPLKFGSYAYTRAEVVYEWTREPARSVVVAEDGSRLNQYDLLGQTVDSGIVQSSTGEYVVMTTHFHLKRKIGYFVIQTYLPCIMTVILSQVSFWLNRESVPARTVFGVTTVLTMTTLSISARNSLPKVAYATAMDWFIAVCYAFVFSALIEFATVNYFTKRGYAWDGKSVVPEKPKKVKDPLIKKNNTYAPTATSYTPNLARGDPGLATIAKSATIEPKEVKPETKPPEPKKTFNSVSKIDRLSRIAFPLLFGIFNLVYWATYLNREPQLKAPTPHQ
T1 sequence (P28472 26-473): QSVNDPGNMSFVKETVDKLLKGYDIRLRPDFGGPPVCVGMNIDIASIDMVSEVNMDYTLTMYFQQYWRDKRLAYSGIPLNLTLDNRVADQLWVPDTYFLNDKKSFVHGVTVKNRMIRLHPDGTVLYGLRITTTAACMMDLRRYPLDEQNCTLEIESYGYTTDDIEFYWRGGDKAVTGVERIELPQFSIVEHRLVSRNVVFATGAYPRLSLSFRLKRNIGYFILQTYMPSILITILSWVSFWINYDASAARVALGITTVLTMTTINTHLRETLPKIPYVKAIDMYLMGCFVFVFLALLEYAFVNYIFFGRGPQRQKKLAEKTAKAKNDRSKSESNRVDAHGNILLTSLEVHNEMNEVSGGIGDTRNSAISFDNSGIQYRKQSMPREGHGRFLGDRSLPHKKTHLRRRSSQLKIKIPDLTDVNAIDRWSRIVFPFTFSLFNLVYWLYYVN
T1 sequence (P18507 40-467 isoform P18507-1 limits assumed): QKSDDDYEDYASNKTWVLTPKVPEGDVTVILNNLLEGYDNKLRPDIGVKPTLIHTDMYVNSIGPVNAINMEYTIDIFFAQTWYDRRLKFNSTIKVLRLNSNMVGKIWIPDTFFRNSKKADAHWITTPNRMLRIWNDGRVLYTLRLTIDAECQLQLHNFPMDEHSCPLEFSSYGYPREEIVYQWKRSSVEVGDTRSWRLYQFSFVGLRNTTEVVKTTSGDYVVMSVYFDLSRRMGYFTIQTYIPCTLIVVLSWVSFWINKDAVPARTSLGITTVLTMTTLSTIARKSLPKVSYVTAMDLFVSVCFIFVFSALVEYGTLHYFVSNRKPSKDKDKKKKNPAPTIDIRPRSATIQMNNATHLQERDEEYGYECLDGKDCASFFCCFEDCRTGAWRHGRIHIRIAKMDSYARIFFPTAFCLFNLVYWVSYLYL
Procedure: (§1) As will be appreciated by those of skill in the art, any reagent that is suitable for use with a chosen host cell may be used to introduce a nucleic acid, e.g. plasmid, oligonucleotide, labeled oligonucleotide, into a host cell with proper optimization. Examples of reagents that may be used to introduce nucleic acids into host cells include but are not limited to Lipofectamine, Lipofectamine 2000, Oligofectamine, TFX reagents, Fugene 6, DOTAP/DOPE, Metafectine, or Fecturin.
(§2) Cells were plated 24 hours prior to assay at 10-25,000 cells per well in 384 well plates in growth media (Ham's F-12 media plus FBS and glutamine). […] Incubation was for 1 hour, followed by plate loading onto the high throughput fluorescent plate reader (Hamamastu FDSS). […] The plates were read for 90 seconds.
(§3) Interaction of cell lines with test compounds was evaluated by measuring the membrane potential of GABAA, in response to test compounds using the following protocol.

[2] = target: T2, GABAA receptor α2β3γ2s (α2) (Homo sapiens, UniProt P18507+P28472+P47869, A343T); test: Membrane potential assay, CHO cell line expressing GABAA α2β3γ2s; type: cell-based; details: membrane potential assay, CHO α2β3γ2s cell line
T2 construct: Human GABAA receptor alpha 2 subunit amino acid; Human GABAA receptor beta 3 variant 1 subunit amino acid; Human GABAA receptor gamma 2 variant 1 (short) subunit amino acid; expressed in transfected cells
T2 sequence (P47869 29-451 A343T): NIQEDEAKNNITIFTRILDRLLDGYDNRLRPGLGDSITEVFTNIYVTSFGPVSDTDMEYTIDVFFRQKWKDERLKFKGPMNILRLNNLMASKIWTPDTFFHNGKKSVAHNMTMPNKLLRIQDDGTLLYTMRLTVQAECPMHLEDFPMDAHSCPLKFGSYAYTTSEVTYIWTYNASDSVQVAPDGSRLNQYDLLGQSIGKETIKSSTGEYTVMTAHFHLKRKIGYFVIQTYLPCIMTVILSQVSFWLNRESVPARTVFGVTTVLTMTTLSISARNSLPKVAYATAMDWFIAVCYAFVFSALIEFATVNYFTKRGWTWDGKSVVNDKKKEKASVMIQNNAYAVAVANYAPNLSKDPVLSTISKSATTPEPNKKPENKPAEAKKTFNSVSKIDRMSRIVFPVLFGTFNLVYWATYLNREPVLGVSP
T2 sequence (P28472 26-473, stated change not applied): as the sequence (P28472 26-473) above
T2 sequence (P18507 40-467 isoform P18507-1, stated change not applied): as the sequence (P18507 40-467 isoform P18507-1 limits assumed) above
Procedure: as §1, §2, §3

[3] = target: T3, GABAA receptor α3β3γ2s (α3) (Homo sapiens, UniProt P18507+P28472+P34903); test: Membrane potential assay, CHO cell line expressing GABAA α3β3γ2s; type: cell-based
T3 construct: Human GABAA receptor alpha 3 subunit amino acid; Human GABAA receptor beta 3 variant 1 subunit amino acid; Human GABAA receptor gamma 2 variant 1 (short) subunit amino acid; expressed in transfected cells
T3 sequence (P34903 29-492): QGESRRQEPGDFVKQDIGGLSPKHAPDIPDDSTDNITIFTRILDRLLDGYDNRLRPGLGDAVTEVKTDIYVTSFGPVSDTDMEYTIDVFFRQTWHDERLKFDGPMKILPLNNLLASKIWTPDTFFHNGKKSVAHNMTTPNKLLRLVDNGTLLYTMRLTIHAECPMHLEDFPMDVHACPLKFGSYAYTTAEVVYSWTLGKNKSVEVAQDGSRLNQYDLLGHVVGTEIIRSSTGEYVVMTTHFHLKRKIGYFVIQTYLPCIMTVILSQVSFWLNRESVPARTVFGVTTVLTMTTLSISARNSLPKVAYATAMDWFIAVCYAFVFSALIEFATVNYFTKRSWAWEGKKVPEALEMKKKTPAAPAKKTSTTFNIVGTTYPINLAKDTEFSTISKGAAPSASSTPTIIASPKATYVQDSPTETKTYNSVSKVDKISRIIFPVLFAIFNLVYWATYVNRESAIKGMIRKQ
T3 sequence (P28472 26-473): as the sequence (P28472 26-473) above
T3 sequence (P18507 40-467 isoform P18507-1 limits assumed): as the sequence (P18507 40-467 isoform P18507-1 limits assumed) above
Procedure: as §1, §2, §3

[4] = target: T4, GABAA receptor α5β3γ2s (α5) (Homo sapiens, UniProt P18507+P28472+P31644); test: Membrane potential assay, CHO cell line expressing GABAA α5β3γ2s; type: cell-based
T4 construct: Human GABAA receptor alpha 5 subunit amino acid; Human GABAA receptor beta 3 variant 1 subunit amino acid; Human GABAA receptor gamma 2 variant 1 (short) subunit amino acid; expressed in transfected cells
T4 sequence (P31644 32-462): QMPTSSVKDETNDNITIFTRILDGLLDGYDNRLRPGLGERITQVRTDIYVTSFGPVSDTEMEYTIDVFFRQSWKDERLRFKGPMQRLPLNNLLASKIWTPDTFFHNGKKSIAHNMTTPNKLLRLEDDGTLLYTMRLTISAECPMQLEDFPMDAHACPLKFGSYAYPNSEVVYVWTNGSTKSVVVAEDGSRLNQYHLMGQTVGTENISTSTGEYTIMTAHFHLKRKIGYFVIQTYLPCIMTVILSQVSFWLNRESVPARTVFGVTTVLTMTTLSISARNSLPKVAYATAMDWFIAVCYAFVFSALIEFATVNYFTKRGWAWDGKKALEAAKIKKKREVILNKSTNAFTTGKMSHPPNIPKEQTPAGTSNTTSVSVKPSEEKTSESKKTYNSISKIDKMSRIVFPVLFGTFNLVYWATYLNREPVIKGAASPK
T4 sequence (P28472 26-473): as the sequence (P28472 26-473) above
T4 sequence (P18507 40-467 isoform P18507-1 limits assumed): as the sequence (P18507 40-467 isoform P18507-1 limits assumed) above
Procedure: as §1, §2, §3

[5] = target: T5, GABAA receptor α2β3γ2s (α2) (Homo sapiens, UniProt P18507+P28472+P47869); test: Membrane potential assay, CHO cell line expressing GABAA α2β3γ2s; type: cell-based
T5 construct: Human GABAA receptor alpha 2 subunit amino acid; Human GABAA receptor beta 3 variant 1 subunit amino acid; Human GABAA receptor gamma 2 variant 1 (short) subunit amino acid; expressed in transfected cells
T5 sequence (P47869 29-451 A343T): as the sequence (P47869 29-451 A343T) above
T5 sequence (P28472 26-473, change not shown): as the sequence (P28472 26-473) above
T5 sequence (P18507 40-467 isoform P18507-1, change not shown): as the sequence (P18507 40-467 isoform P18507-1 limits assumed) above
Procedure: as §1, §2, §3

[6] = test system: GABAA-meYFP-CHO cells (α1β3γ2s, α2β3γ2s, α3β3γ2s, α5β3γ2s); test: In-cell readout assay using halide-sensitive meYFP; type: cell-based, human; details: increasing concentrations of GABA ligand
Procedure: The response of GABAA (subunit combinations of α1β3γ2s (A1), α2β3γ2s (A2), α3β3γ2s (A3) and α5β3γ2s (A5)) expressing CHO cells of the invention to test compounds was evaluated using the following protocol for an in-cell readout assay.
Cells were plated 24 hours prior to assay at 10-25,000 cells per well in 384 well plates in growth media (Ham's F-12 media plus FBS and glutamine). […] The assay plates were then loaded on the FDSS (Hamamatsu Corporation). […] The plates were read for 90 seconds.

[7] = membrane potential assay, CHO α1β3γ2s cell line, read-out: EC50 Values α1
[8] = membrane potential assay, CHO α3β3γ2s cell line, read-out: EC50 Values α3
[9] = membrane potential assay, CHO α5β3γ2s cell line, read-out: EC50 Values α5

Molecule	EC50 [1, 7] [µM]	EC50 [2] [nM]	EC50 [3, 8] [nM]	EC50 [4, 9] [nM]	EC50 [5] [nM]	EC50 [4] [nM]	EC50 [1] [µM]	EC50 [3] [nM]	Quench of meYFP signal [6]	EC50 Values α5 (result in words) ([4]; membrane potential assay, CHO α5β3γ2s cell line)
C[C@]12CC[C@@H](O)C[C@@H]1CC[C@@H]1[C@@H]2CC[C@]2(C)[C@@H](C(=O)CO)CC[C@@H]12 [3-alpha, 21-dihydroxy-5-alpha-pregnan-20-one]	0.382	123	80.2	17.3	–	–	–	–	–	–
CC(=O)[C@H]1CC[C@H]2[C@@H]3CC[C@H]4C[C@H](O)CC[C@]4(C)[C@H]3CC[C@]12C [5-alpha-Pregnan-3alpha-ol-20-one]	0.692	–	80	–	140	33.6	–	–	–	–
C[C@]12CC[C@@H](O)C[C@@H]1CC[C@@H]1[C@@H]2CC[C@]2(C)C(=O)CC[C@@H]12 [Androsterone]	–	–	–	–	1520	337	1.48	1120	–	–
CN1C(=O)CCS(=O)(=O)C1c1ccc(Cl)cc1 (stereo not shown) [Chlormezanone]	–	–	–	–	5.42	14.1	0.00174	7	–	–
OCCN(CCO)c1nc(N2CCCCC2)c2nc(N(CCO)CCO)nc(N3CCCCC3)c2n1 [Dipyridamole]	–	3680	3690	1370	–	–	–	–	–	–
CCOC(=O)c1cnc2c(cnn2CC)c1NN=C(C)C [Etazolate]	2.54	790	569	281	–	–	–	–	–	–
NCCCC(=O)O [GABA, Gamma-aminobutyric acid]	–	–	–	–	–	–	–	–	increasing quench of meYFP signal	–
COc1cc(/C=C(\C#N)C(=O)c2ccc(O)c(O)c2)cc(I)c1O [I-OMe Tyrphostin 538]	3.5	1500	2200	–	–	–	–	–	–	α5 Not active
O=C(O)C1=CCNCC1 [Isoguvacine hydrochloride]	3.57	3420	6780	1130	–	–	–	–	–	–
NCc1cc(=O)[nH]o1 [Muscimol]	–	–	–	–	675	80	4	367	–	–
O=C(Nc1ccc([N+](=O)[O-])cc1Cl)c1cc(Cl)ccc1O [Niclosamide]	–	–	550	690	–	–	–	–	–	–
O=S(=O)(O)C1CCNCC1 [Piperidine-4-sulphonic acid]	13	20000	8330	14200	–	–	–	–	–	–
CC(C)c1cccc(C(C)C)c1O [Propofol]	–	–	–	–	42800	2000	33.4	12900	–	–
CCCCNc1c(C(=O)OCC)c(C)nc2c1cnn2CC [Tracazolate]	10.6	8900	4300	762	–	–	–	–	–	–
CC(C)(C)c1cc(C=C(C#N)C#N)cc(C(C)(C)C)c1O [Tyrphostin A9]	1.8	880	5000	54000	–	–	–	–	–	–
Ivermectin	4.26	767	798	687	–	–	–	–	–	–
